Data from ChEMBL document CHEMBL1201862, “PubChem BioAssay data set” (2004).
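Step 1: Grow cells in 96-well plates. Step 2: Expose to compound for 48 hours at 5 concentrations. Step 3: Interpolate endpoints linearly; if unreached, use highest concentration. Here, GI50 denotes the concentration required for 50% inhibition of growth.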 Calls of active or inactive are those of the source. No stated cut-off is given here; in the data, active = GI50 up to about 1.1 µM and inactive = higher.

Key:
Assay in all cases: NCI tumour cell line growth inhibition, 48 h
HCC 2998 = tested on: HCC 2998
RPMI-8226 = tested on: RPMI-8226
SNB-75 = tested on: SNB-75
SK-MEL-5 = tested on: SK-MEL-5
MDA-MB-435 = tested on: MDA-MB-435
MOLT-4 = tested on: MOLT-4
NCI-H460 = tested on: NCI-H460
TK-10 = tested on: TK-10
OVCAR-4 = tested on: OVCAR-4
SNB-19 = tested on: SNB-19
OVCAR-5 = tested on: OVCAR-5
COLO 205 = tested on: COLO 205
SF-539 = tested on: SF-539
UACC-62 = tested on: UACC-62
RXF 393 = tested on: RXF 393
A498 = tested on: A498
OVCAR-8 = tested on: OVCAR-8
SF-268 = tested on: SF-268
SK-OV-3 = tested on: SK-OV-3
T47D = tested on: T47D
HCT-116 = tested on: HCT-116
K562 = tested on: K562
CAKI-1 = tested on: CAKI-1
A549 = tested on: A549
UACC-257 = tested on: UACC-257
DU-145 = tested on: DU-145
BT-549 = tested on: BT-549
U-251 = tested on: U-251
LOX IMVI = tested on: LOX IMVI
OVCAR-3 = tested on: OVCAR-3
PC-3 = tested on: PC-3
Hs-578T = tested on: Hs-578T
UO-31 = tested on: UO-31
NCI-H522 = tested on: NCI-H522
HT-29 = tested on: HT-29
SN12C = tested on: SN12C
NCI-H226 = tested on: NCI-H226
KM12 = tested on: KM12
SK-MEL-2 = tested on: SK-MEL-2
MDA-N = tested on: MDA-N
Malme-3M = tested on: Malme-3M
SW-620 = tested on: SW-620
M14 = tested on: M14
NCI-H23 = tested on: NCI-H23
SR = tested on: SR
ACHN = tested on: ACHN
786-0 = tested on: 786-0
CCRF-CEM = tested on: CCRF-CEM
EKVX = tested on: EKVX
IGROV-1 = tested on: IGROV-1
HL-60 = tested on: HL-60
HCT-15 = tested on: HCT-15
MDA-MB-231 = tested on: MDA-MB-231
SK-MEL-28 = tested on: SK-MEL-28
NCI/ADR-RES = tested on: NCI/ADR-RES
HOP-92 = tested on: HOP-92
MCF7 = tested on: MCF7
HOP-62 = tested on: HOP-62
SF-295 = tested on: SF-295

COP(=N[Si](C)(C)C)(OC)OC
GI50 (HCC 2998): > 100 µM (inactive)
GI50 (RPMI-8226): > 100 µM (inactive)
GI50 (SNB-75): > 100 µM (inactive)
GI50 (SK-MEL-5): > 100 µM (inactive)
GI50 (MDA-MB-435): > 100 µM (inactive)
GI50 (MOLT-4): > 100 µM (inactive)
GI50 (NCI-H460): > 100 µM (inactive)
GI50 (TK-10): > 100 µM (inactive)
GI50 (OVCAR-4): > 100 µM (inactive)
GI50 (SNB-19): > 100 µM (inactive)
GI50 (OVCAR-5): > 100 µM (inactive)
GI50 (COLO 205): > 100 µM (inactive)
GI50 (SF-539): > 100 µM (inactive)
GI50 (UACC-62): > 100 µM (inactive)
GI50 (RXF 393): > 100 µM (inactive)
GI50 (A498): > 100 µM (inactive)
GI50 (OVCAR-8): > 100 µM (inactive)
GI50 (SF-268): > 100 µM (inactive)
GI50 (SK-OV-3): > 100 µM (inactive)
GI50 (T47D): > 100 µM (inactive)
GI50 (HCT-116): > 100 µM (inactive)
GI50 (K562): > 100 µM (inactive)
GI50 (CAKI-1): > 100 µM (inactive)
GI50 (A549): > 100 µM (inactive)
GI50 (UACC-257): > 100 µM (inactive)
GI50 (DU-145): > 100 µM (inactive)
GI50 (BT-549): > 100 µM (inactive)
GI50 (U-251): > 100 µM (inactive)
GI50 (LOX IMVI): > 100 µM (inactive)
GI50 (OVCAR-3): > 100 µM (inactive)
GI50 (PC-3): > 100 µM (inactive)
GI50 (Hs-578T): > 100 µM (inactive)
GI50 (UO-31): > 100 µM (inactive)
GI50 (NCI-H522): > 100 µM (inactive)
GI50 (HT-29): > 100 µM (inactive)
GI50 (SN12C): > 100 µM (inactive)
GI50 (NCI-H226): > 100 µM (inactive)
GI50 (KM12): > 100 µM (inactive)
GI50 (SK-MEL-2): > 100 µM (inactive)
GI50 (MDA-N): > 100 µM (inactive)
GI50 (Malme-3M): > 100 µM (inactive)
GI50 (SW-620): > 100 µM (inactive)
GI50 (M14): > 100 µM (inactive)
GI50 (NCI-H23): > 100 µM (inactive)
GI50 (SR): > 100 µM (inactive)
GI50 (ACHN): > 100 µM (inactive)
GI50 (786-0): > 100 µM (inactive)
GI50 (CCRF-CEM): > 100 µM (inactive)
GI50 (EKVX): > 100 µM (inactive)
GI50 (IGROV-1): > 100 µM (inactive)
GI50 (HL-60): > 100 µM (inactive)
GI50 (HCT-15): > 100 µM
GI50 (MDA-MB-231): > 100 µM (inactive)
GI50 (SK-MEL-28): > 100 µM (inactive)
GI50 (NCI/ADR-RES): > 100 µM (inactive)
GI50 (HOP-92): > 100 µM (inactive)
GI50 (MCF7): > 100 µM (inactive)
GI50 (HOP-62): > 100 µM (inactive)

O=S(=O)(O)c1ccc2c(/N=N\c3cccc4ccccc34)c(O)c(S(=O)(=O)O)cc2c1
GI50 (HCC 2998): > 100 µM (inactive)
GI50 (RPMI-8226): > 100 µM (inactive)
GI50 (SNB-75): > 100 µM (inactive)
GI50 (SK-MEL-5): > 100 µM (inactive)
GI50 (MDA-MB-435): > 100 µM (inactive)
GI50 (MOLT-4): > 100 µM (inactive)
GI50 (NCI-H460): > 100 µM (inactive)
GI50 (TK-10): > 100 µM (inactive)
GI50 (OVCAR-4): > 100 µM (inactive)
GI50 (SF-295): > 100 µM (inactive)
GI50 (SNB-19): > 100 µM (inactive)
GI50 (OVCAR-5): > 100 µM (inactive)
GI50 (COLO 205): > 100 µM (inactive)
GI50 (SF-539): > 100 µM (inactive)
GI50 (UACC-62): > 100 µM (inactive)
GI50 (RXF 393): > 100 µM (inactive)
GI50 (A498): > 100 µM (inactive)
GI50 (OVCAR-8): > 100 µM (inactive)
GI50 (SF-268): > 100 µM (inactive)
GI50 (SK-OV-3): > 100 µM (inactive)
GI50 (T47D): > 100 µM (inactive)
GI50 (HCT-116): > 100 µM (inactive)
GI50 (K562): > 100 µM (inactive)
GI50 (CAKI-1): > 100 µM (inactive)
GI50 (A549): > 100 µM (inactive)
GI50 (UACC-257): > 100 µM (inactive)
GI50 (DU-145): > 100 µM (inactive)
GI50 (BT-549): > 100 µM (inactive)
GI50 (U-251): > 100 µM (inactive)
GI50 (LOX IMVI): > 100 µM (inactive)
GI50 (OVCAR-3): > 100 µM (inactive)
GI50 (PC-3): > 100 µM (inactive)
GI50 (Hs-578T): > 100 µM (inactive)
GI50 (UO-31): > 100 µM (inactive)
GI50 (NCI-H522): > 100 µM (inactive)
GI50 (HT-29): > 100 µM (inactive)
GI50 (NCI-H226): > 100 µM (inactive)
GI50 (KM12): > 100 µM (inactive)
GI50 (SK-MEL-2): > 100 µM (inactive)
GI50 (MDA-N): > 100 µM (inactive)
GI50 (Malme-3M): > 61.7 µM (inactive)
GI50 (SW-620): > 100 µM (inactive)
GI50 (M14): > 100 µM (inactive)
GI50 (NCI-H23): > 100 µM (inactive)
GI50 (SR): > 48.6 µM (inactive)
GI50 (ACHN): > 100 µM (inactive)
GI50 (786-0): > 100 µM (inactive)
GI50 (CCRF-CEM): > 100 µM (inactive)
GI50 (EKVX): > 100 µM (inactive)
GI50 (IGROV-1): > 100 µM (inactive)
GI50 (HL-60): > 100 µM (inactive)
GI50 (HCT-15): > 100 µM
GI50 (MDA-MB-231): > 100 µM (inactive)
GI50 (SK-MEL-28): > 100 µM (inactive)
GI50 (NCI/ADR-RES): > 100 µM (inactive)
GI50 (HOP-92): > 100 µM (inactive)
GI50 (MCF7): > 100 µM (inactive)
GI50 (HOP-62): > 100 µM (inactive)
